Source: ChEMBL document CHEMBL1201862, “PubChem BioAssay data set” (2004)
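A five-concentration, 48-hour dose response in 96-well plates underlies each endpoint, interpolated linearly between surrounding concentrations. GI50 = concentration required for 50% inhibition of growth.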 Activity calls are given as the source filed them. Cut-off read from the data, not from the text of the source: active = GI50 up to about 1.1 µM and inactive = higher.

How the values were obtained:
Assay in all cases: NCI-60 cell line screen, 48 h
[1] = test system: 786-0
[2] = test system: A498
[3] = test system: A549
[4] = test system: ACHN
[5] = test system: BT-549
[6] = test system: CAKI-1
[7] = test system: CCRF-CEM
[8] = test system: COLO 205
[9] = test system: DU-145
[10] = test system: EKVX
[11] = test system: HCC 2998
[12] = test system: HCT-116
[13] = test system: HCT-15
[14] = test system: HL-60
[15] = test system: HOP-62
[16] = test system: HOP-92
[17] = test system: HT-29
[18] = test system: Hs-578T
[19] = test system: IGROV-1
[20] = test system: K562
[21] = test system: KM12
[22] = test system: LOX IMVI
[23] = test system: M14
[24] = test system: MCF7
[25] = test system: MDA-MB-231
[26] = test system: MDA-MB-435
[27] = test system: MDA-N
[28] = test system: MOLT-4
[29] = test system: Malme-3M
[30] = test system: NCI-H226
[31] = test system: NCI-H23
[32] = test system: NCI-H460
[33] = test system: NCI-H522
[34] = test system: NCI/ADR-RES
[35] = test system: OVCAR-3
[36] = test system: OVCAR-4
[37] = test system: OVCAR-5
[38] = test system: OVCAR-8
[39] = test system: PC-3
[40] = test system: RPMI-8226
[41] = test system: RXF 393
[42] = test system: SF-268
[43] = test system: SF-295
[44] = test system: SK-MEL-28
[45] = test system: SK-MEL-2
[46] = test system: SK-MEL-5
[47] = test system: SK-OV-3
[48] = test system: SN12C
[49] = test system: SNB-19
[50] = test system: SNB-75
[51] = test system: SR
[52] = test system: SW-620
[53] = test system: T47D
[54] = test system: TK-10
[55] = test system: U-251
[56] = test system: UACC-257
[57] = test system: UACC-62
[58] = test system: UO-31
[59] = test system: SF-539

**Q.** For `COc1ccc2c(c1)-c1c(c3cc(OC)ccc3n1CCCN(C)C)CC2`, which GI50 [1] is on record?
**A.** 9.04 µM (inactive)

**Q.** And the GI50 [2]?
**A.** 13.4 µM (inactive)

**Q.** And the GI50 [3]?
**A.** 12.1 µM (inactive)

**Q.** And the GI50 [4]?
**A.** 14.3 µM (inactive)

**Q.** What about the GI50 [5] of the same compound?
**A.** 15.5 µM (inactive)

**Q.** What about the GI50 [6] of the same compound?
**A.** 12.4 µM (inactive)

**Q.** And the GI50 [7]?
**A.** 4.46 µM (inactive)

**Q.** And the GI50 [8]?
**A.** 2.02 µM (inactive)

**Q.** And the GI50 [9]?
**A.** 16.2 µM (inactive)

**Q.** What about the GI50 [10] of the same compound?
**A.** 13.2 µM (inactive)

**Q.** And the GI50 [11]?
**A.** 3.13 µM (inactive)

**Q.** What about the GI50 [12] of the same compound?
**A.** 5.2 µM (inactive)

**Q.** And the GI50 [13]?
**A.** 11.4 µM

**Q.** And the GI50 [14]?
**A.** 15.3 µM (inactive)

**Q.** And the GI50 [15]?
**A.** 14.3 µM (inactive)

**Q.** And the GI50 [16]?
**A.** 12.2 µM (inactive)

**Q.** And the GI50 [17]?
**A.** 2.81 µM (inactive)

**Q.** What about the GI50 [18] of the same compound?
**A.** 4.29 µM (inactive)

**Q.** And the GI50 [19]?
**A.** 2.93 µM (inactive)

**Q.** What about the GI50 [20] of the same compound?
**A.** 4.3 µM (inactive)

**Q.** And the GI50 [21]?
**A.** 7.93 µM (inactive)

**Q.** And the GI50 [22]?
**A.** 4.06 µM (inactive)

**Q.** What about the GI50 [23] of the same compound?
**A.** 2.03 µM (inactive)

**Q.** What about the GI50 [24] of the same compound?
**A.** 7.83 µM (inactive)

**Q.** And the GI50 [25]?
**A.** 13 µM (inactive)

**Q.** And the GI50 [26]?
**A.** 5.55 µM (inactive)

**Q.** And the GI50 [27]?
**A.** 4.79 µM (inactive)

**Q.** And the GI50 [28]?
**A.** 5.93 µM (inactive)

**Q.** What about the GI50 [29] of the same compound?
**A.** 2.28 µM (inactive)

**Q.** And the GI50 [30]?
**A.** 1.84 µM (inactive)

**Q.** And the GI50 [31]?
**A.** 16.8 µM (inactive)

**Q.** And the GI50 [32]?
**A.** 10.1 µM (inactive)

**Q.** And the GI50 [33]?
**A.** 9.91 µM (inactive)

**Q.** What about the GI50 [34] of the same compound?
**A.** 12.7 µM (inactive)

**Q.** And the GI50 [35]?
**A.** 14.1 µM (inactive)

**Q.** And the GI50 [36]?
**A.** 11 µM (inactive)

**Q.** And the GI50 [37]?
**A.** 13.8 µM (inactive)

**Q.** What about the GI50 [38] of the same compound?
**A.** 13.7 µM (inactive)

**Q.** And the GI50 [39]?
**A.** 10.3 µM (inactive)

**Q.** What about the GI50 [40] of the same compound?
**A.** 5.24 µM (inactive)

**Q.** And the GI50 [41]?
**A.** 6.93 µM (inactive)

**Q.** And the GI50 [42]?
**A.** 10.7 µM (inactive)

**Q.** And the GI50 [43]?
**A.** 2.62 µM (inactive)

**Q.** And the GI50 [44]?
**A.** 5.78 µM (inactive)

**Q.** What about the GI50 [45] of the same compound?
**A.** 15.8 µM (inactive)

**Q.** And the GI50 [46]?
**A.** 2.68 µM (inactive)

**Q.** What about the GI50 [47] of the same compound?
**A.** 16.2 µM (inactive)

**Q.** And the GI50 [48]?
**A.** 12 µM (inactive)

**Q.** And the GI50 [49]?
**A.** 14.6 µM (inactive)

**Q.** What about the GI50 [50] of the same compound?
**A.** 2.99 µM (inactive)

**Q.** What about the GI50 [51] of the same compound?
**A.** 5.18 µM (inactive)

**Q.** What about the GI50 [52] of the same compound?
**A.** 11.1 µM (inactive)

**Q.** And the GI50 [53]?
**A.** 5.36 µM (inactive)

**Q.** And the GI50 [54]?
**A.** 16.5 µM (inactive)

**Q.** And the GI50 [55]?
**A.** 8.67 µM (inactive)

**Q.** What about the GI50 [56] of the same compound?
**A.** 3.48 µM (inactive)

**Q.** And the GI50 [57]?
**A.** 6.98 µM (inactive)

**Q.** What about the GI50 [58] of the same compound?
**A.** 10.8 µM (inactive)

**Q.** For `COc1c2c(cc3oc(C)cc(=O)c13)OC(=N)C(C(N)=O)C2CC(=O)c1ccc(N)cc1` (stereo not drawn), which GI50 [1] is on record?
**A.** > 100 µM (inactive)

**Q.** And the GI50 [2]?
**A.** > 100 µM (inactive)

**Q.** And the GI50 [3]?
**A.** > 100 µM (inactive)

**Q.** And the GI50 [4]?
**A.** > 100 µM (inactive)

**Q.** What about the GI50 [5] of the same compound?
**A.** > 100 µM (inactive)

**Q.** What about the GI50 [6] of the same compound?
**A.** > 100 µM (inactive)

**Q.** And the GI50 [7]?
**A.** > 100 µM (inactive)

**Q.** What about the GI50 [8] of the same compound?
**A.** > 100 µM (inactive)

**Q.** What about the GI50 [9] of the same compound?
**A.** > 100 µM (inactive)

**Q.** And the GI50 [10]?
**A.** > 100 µM (inactive)

**Q.** What about the GI50 [11] of the same compound?
**A.** > 100 µM (inactive)

**Q.** And the GI50 [12]?
**A.** > 100 µM (inactive)

**Q.** And the GI50 [13]?
**A.** > 100 µM

**Q.** What about the GI50 [14] of the same compound?
**A.** > 100 µM (inactive)

**Q.** And the GI50 [16]?
**A.** > 100 µM (inactive)

**Q.** And the GI50 [18]?
**A.** > 100 µM (inactive)

**Q.** What about the GI50 [19] of the same compound?
**A.** > 100 µM (inactive)

**Q.** And the GI50 [20]?
**A.** > 100 µM (inactive)

**Q.** What about the GI50 [21] of the same compound?
**A.** > 100 µM (inactive)

**Q.** And the GI50 [22]?
**A.** > 100 µM (inactive)

**Q.** And the GI50 [23]?
**A.** > 100 µM (inactive)

**Q.** What about the GI50 [24] of the same compound?
**A.** > 100 µM (inactive)

**Q.** And the GI50 [25]?
**A.** > 100 µM (inactive)

**Q.** And the GI50 [26]?
**A.** > 100 µM (inactive)

**Q.** What about the GI50 [27] of the same compound?
**A.** > 100 µM (inactive)

**Q.** And the GI50 [28]?
**A.** > 100 µM (inactive)

**Q.** What about the GI50 [29] of the same compound?
**A.** > 100 µM (inactive)

**Q.** What about the GI50 [30] of the same compound?
**A.** > 100 µM (inactive)

**Q.** And the GI50 [32]?
**A.** > 100 µM (inactive)

**Q.** And the GI50 [33]?
**A.** > 100 µM (inactive)

**Q.** And the GI50 [34]?
**A.** > 100 µM (inactive)

**Q.** What about the GI50 [35] of the same compound?
**A.** > 100 µM (inactive)

**Q.** And the GI50 [36]?
**A.** > 100 µM (inactive)

**Q.** And the GI50 [37]?
**A.** > 100 µM (inactive)

**Q.** What about the GI50 [38] of the same compound?
**A.** > 100 µM (inactive)

**Q.** What about the GI50 [39] of the same compound?
**A.** > 100 µM (inactive)

**Q.** What about the GI50 [40] of the same compound?
**A.** > 100 µM (inactive)

**Q.** What about the GI50 [41] of the same compound?
**A.** > 100 µM (inactive)

**Q.** What about the GI50 [42] of the same compound?
**A.** > 100 µM (inactive)

**Q.** What about the GI50 [43] of the same compound?
**A.** > 100 µM (inactive)

**Q.** What about the GI50 [59] of the same compound?
**A.** > 100 µM (inactive)

**Q.** And the GI50 [44]?
**A.** > 100 µM (inactive)

**Q.** What about the GI50 [45] of the same compound?
**A.** > 100 µM (inactive)

**Q.** What about the GI50 [46] of the same compound?
**A.** > 100 µM (inactive)

**Q.** And the GI50 [48]?
**A.** > 100 µM (inactive)

**Q.** What about the GI50 [49] of the same compound?
**A.** > 100 µM (inactive)

**Q.** What about the GI50 [50] of the same compound?
**A.** > 100 µM (inactive)

**Q.** And the GI50 [51]?
**A.** > 100 µM (inactive)

**Q.** And the GI50 [52]?
**A.** > 100 µM (inactive)

**Q.** And the GI50 [53]?
**A.** > 100 µM (inactive)

**Q.** What about the GI50 [54] of the same compound?
**A.** > 100 µM (inactive)

**Q.** And the GI50 [55]?
**A.** > 100 µM (inactive)

**Q.** And the GI50 [56]?
**A.** > 100 µM (inactive)

**Q.** And the GI50 [57]?
**A.** > 100 µM (inactive)

**Q.** What about the GI50 [58] of the same compound?
**A.** > 100 µM (inactive)
